Laboratory results from patent US11147272B2, “Pyridone compounds and agricultural and horticultural fungicides comprising the same as active ingredients” (MITSUI CHEMICALS AGRO, INC., priority 2017, dated 2021).

How the values were obtained:
[1] = tested on: Alternaia brassicicola; test: Test Example C: Alternaria sooty spot on cabbage; format: in vivo; conditions: for Test C control value class: class of control value
Excerpt: Seeds of a test plant (cabbage variety: Shikidori) were planted and cultivated until the cotyledons extended.
<Control Value> Control value=100{1−(n/3)}

[2] = tested on: Plasmopara viticola; test: Test Example G: Downy mildew on vine; conditions: for Test G control value class: Downy mildew on vine (Neomuscat), 2.5 ml/pot, assessed 7 to 10 days after inoculation; for Test G control value: 7 to 10 days after inoculation
[3] = tested on: Magnaporthe grisea; test: whole plant or invertebrate; format: in vivo; conditions: for Test A control value class: class of control value
[4] = tested on: Phytophthora infestans; test: whole plant or invertebrate; format: in vivo; conditions: for Test F control value class: class of control value
[5] = tested on: Botrytis cinerea; test: Test Example B: Gray mold on tomato; conditions: for Test B control value class: class of control value
[6] = tested on: Blumeria graminis f. sp. hordei; test: Test Example D: Powdery mildew on barley; conditions: for Test D control value class: class of control value
[7] = tested on: Colletotrichum orbiculare; test: Test Example H: Anthracnose on cucumber; conditions: for Test H control value class: Anthracnose on cucumber (Sagami Hanjiro), 2.5 ml/pot, assessed 6 to 10 days after inoculation; for Test H control value: 6 to 10 days after inoculation
[8] = tested on: Puccinia recondita; test: Test Example E: Brown rust on wheat; format: in vivo; conditions: for Test E control value class: class of control value
[9] = Alternaria sooty spot on cabbage
[10] = Alternaria sooty spot on cabbage, control value class
[11] = Downy mildew on vine, 250 ppm spray
[12] = Blast on rice, control value class
[13] = Late blight on tomato, control value class
[14] = Gray mold on tomato, control value class
[15] = Powdery mildew on barley, control value class
[16] = Anthracnose on cucumber, 250 ppm spray
[17] = Brown rust on wheat, control value class
[18] = 250 ppm drug solution sprayed on test plant
[19] = 250 ppm drug solution sprayed (2.5 ml/pot), grape Neomuscat
[20] = 250 ppm drug solution sprayed (2.5 ml/pot), cucumber Sagami Hanjiro

Compound	Test C control value class [1, 9]	Test G control value class ([2]; 250 ppm spray)	Test A control value class ([3]; Blast on rice)	Test F control value class ([4]; Late blight on tomato)	Test B control value class ([5]; Gray mold on tomato)	Test D control value class ([6]; Powdery mildew on barley)	Test H control value class ([7]; 250 ppm spray)	Test E control value class ([8]; Brown rust on wheat)	Test C control value [1, 10]	Test G control value [2, 11]	Test A control value [3, 12]	Test F control value [4, 13]	Test B control value [5, 14]	Test D control value [6, 15]	Test H control value [7, 16]	Test E control value [8, 17]	further results
CCOC(C)(C)c1cc(Cl)c(=O)n(CC)c1-c1c(F)cc(F)cc1F [compound 161]	H (more than 50% control value)	H (more than 50% control value)	H (more than 50% control value)	L (50% or less control value)	H (more than 50% control value)	H (more than 50% control value)	H (more than 50% control value)	H (more than 50% control value)	–	–	–	–	–	–	–	–	–
CC(C)Cc1cc(Br)c(=O)n(CC(F)F)c1-c1c(F)cc(F)cc1F [compound 305]	–	–	–	–	–	–	–	–	H (more than 50% control value)	L (50% or less control value)	H (more than 50% control value)	L (50% or less control value)	H (more than 50% control value)	H (more than 50% control value)	H (more than 50% control value)	H (more than 50% control value)	–
CCOC(C)(c1cc(Cl)c(=O)n(CC)c1-c1ccc(OC)cc1)C(C)C (stereo not shown) [compound 247]	–	–	–	–	–	–	–	–	L (50% or less control value)	L (50% or less control value)	L (50% or less control value)	L (50% or less control value)	H (more than 50% control value)	H (more than 50% control value)	L (50% or less control value)	L (50% or less control value)	–
CCOC(C)c1cc(Cl)c(=O)n(CC)c1-c1c(F)cccc1F (stereo not shown) [compound 19]	H (more than 50% control value)	H (more than 50% control value)	H (more than 50% control value)	L (50% or less control value)	H (more than 50% control value)	H (more than 50% control value)	H (more than 50% control value)	H (more than 50% control value)	–	–	–	–	–	–	–	–	–
CCCc1ccc(=O)n(CCC)c1-c1c(F)cc(F)cc1F [compound 437]	–	–	–	–	–	–	–	–	–	–	–	–	–	–	–	–	Test C control value [1, 18]: L (50% or less control value); Test G control value [2, 19]: L (50% or less control value); Test A control value [3, 18]: L (50% or less control value); Test F control value [4, 18]: L (50% or less control value); Test B control value [5, 18]: L (50% or less control value); Test D control value [6, 18]: H (more than 50% control value); Test H control value [7, 20]: H (more than 50% control value); Test E control value [8, 18]: L (50% or less control value)
CCOC(c1cc(Cl)c(=O)n(C)c1-c1c(F)cc(OC)cc1F)C(C)C (stereo not shown) [compound 499]	–	–	–	–	–	–	–	–	–	–	–	–	–	–	–	–	Test C control value [1, 18]: H (more than 50% control value); Test G control value [2, 19]: H (more than 50% control value); Test A control value [3, 18]: H (more than 50% control value); Test F control value [4, 18]: L (50% or less control value); Test B control value [5, 18]: H (more than 50% control value); Test D control value [6, 18]: H (more than 50% control value); Test H control value [7, 20]: H (more than 50% control value); Test E control value [8, 18]: H (more than 50% control value)
CCc1ccc(=O)n(CC)c1-c1ccc(OC)cc1Cl [compound 319]	–	–	–	–	–	–	–	–	H (more than 50% control value)	L (50% or less control value)	L (50% or less control value)	L (50% or less control value)	H (more than 50% control value)	H (more than 50% control value)	H (more than 50% control value)	H (more than 50% control value)	–
CCn1c(-c2ccc(OC)cc2Cl)c(CC(C)C)ccc1=O [compound 238]	–	–	–	–	–	–	–	–	H (more than 50% control value)	H (more than 50% control value)	H (more than 50% control value)	L (50% or less control value)	H (more than 50% control value)	H (more than 50% control value)	H (more than 50% control value)	H (more than 50% control value)	–
CCn1c(-c2c(F)cc(F)cc2F)c(C(C)(O)CC(C)C)cc(Cl)c1=O (stereo not shown) [compound 154]	H (more than 50% control value)	H (more than 50% control value)	H (more than 50% control value)	L (50% or less control value)	H (more than 50% control value)	H (more than 50% control value)	H (more than 50% control value)	H (more than 50% control value)	–	–	–	–	–	–	–	–	–
CCn1c(-c2c(F)cc(F)cc2F)c(C(C)(CC(C)C)OC)cc(Cl)c1=O (racemic) [compound 164]	H (more than 50% control value)	H (more than 50% control value)	H (more than 50% control value)	L (50% or less control value)	H (more than 50% control value)	H (more than 50% control value)	L (50% or less control value)	H (more than 50% control value)	–	–	–	–	–	–	–	–	–
CCCc1cc(Cl)c(=O)n(C)c1-c1ccc(OC)cc1Cl [compound 335]	–	–	–	–	–	–	–	–	H (more than 50% control value)	H (more than 50% control value)	H (more than 50% control value)	L (50% or less control value)	H (more than 50% control value)	H (more than 50% control value)	H (more than 50% control value)	H (more than 50% control value)	–
